Tests used:
[1] = system: EEG amplitude in anesthetized dogs; settings: dog, in vivo
[2] = system: seizure activity on the EEG; settings: dog, in vivo

In the case of `C1CCc2nnnn2CC1` [pentylenetetrazole], the “EEG amplitude, left hemisphere (occipital frontal leads)” value [1] is reported as 35.6 ± 8.0 μV, the “EEG amplitude, right hemisphere (occipital frontal leads)” value [1] is reported as 31.5 ± 8.0 μV and the “increase in EEG amplitude” value [1] is reported as 344%. The “cumulative dose at which seizure activity was observed” value [2] was 11 to 41 mg/kg and the “dogs with seizure activity after pentylenetetrazole” value [2] was “Seizure activity was observed in all the dogs”.
